# Reference: patent US7629340B2, “N-(6-membered aromatic ring)-amido anti-viral compounds” (SmithKline Beecham Corporation, priority 2005, dated 2009)
# Assay: Replicon Assay (luciferase, ET cell line)
# Assay type: cell-based, HCV
# Settings: Hepatitis C virus; % inhibition of replication relative to no compound control, test concentration of 10 μM; ET cells, luciferase read 48-72 hours; read-out: % inhib at 10 uM
# Description: A cell line, ET (Huh-lucubineo-ET) was used for screening of compounds of the present invention for HCV RNA dependent RNA polymerase. The ET cell line was stably transfected with RNA transcripts harboring a I389luc-ubi-neo/NS3-3′/ET; replicon with firefly luciferase-ubiquitin-neomycin phosphotransferase fusion protein and EMCV-IRES driven NS3-5B polyprotein containing the cell culture adaptive mutations (E1202G; T1280I; K1846T) (Krieger at al, 2001 and unpublished). The ET cells were grown in DMEM, supplemented with 10% fetal calf serum, 2 mM Glutamine, Penicillin (100 IU/mL)/Stretomycin (100 μg/mL), 1× nonessential amino acids, and 250 μg/mL G418 (“Geneticin”). They were all available through Life Technologies (Bethesda, Md.). The cells were plated at 0.5−1.0×10^4 cells/well in the 96 well plates and incubated for 24 hrs before adding nucleoside analogs. […] Luciferase activity were measured 48-72 hours later by adding a lysis buffer and the substrate (Catalog number Glo-lysis buffer E2661 and Bright-Glo luciferase system E2620 Promega, Madison, Wis.). Cells should not be too confluent during the assay. Percent inhibition of replication was plotted relative to no compound control. Under the same condition, cytotoxicity of the compounds was determined using cell proliferation reagent, WST-1 (Roche, Germany). The compounds showing antiviral activities, but no significant cytotoxicities were chosen to determine IC50 and TC50. For these determinations, 10 concentration of each compound were used. Concentrations for test compounds typically span a range of 500 fold. IC50 and TC50 values were calculated by fitting % inhibition at each concentration (I) to the following equation: % inhibition=100%/[1+10^(log IC50−log(I))*b] where b is Hill's coefficient.
row,SMILES,inhibition at 10 µM
1,"O=C(Nc1ccc(-c2cccc(COc3ccccc3)c2)cc1)[C@@H]1CCCN1C(=O)OCc1ccccc1 [Compound 6021, 2-(3′-Phenoxymethyl-biphenyl-4-ylcarbamoyl)-pyrrolidine-1-carboxylic acid benzyl ester]",56.1%
2,"O=C(NCc1cccc(-c2cccc(NC(=O)[C@@H]3CCCN3C(=O)OCc3ccccc3)c2)c1)C1CC1 [Compound 6311, 2-{3′-[(Cyclopropanecarbonyl-amino)-methyl]-biphenyl-3-ylcarbamoyl}-pyrrolidine-1-carboxylic acid benzyl ester]",94.2%
3,"Cc1c(Br)cc2[nH]c(Cc3ccc(NC(=O)[C@@H]4CCCN4C(=O)OCc4ccccc4)cc3)nc2c1C (stereo in doubt) [Compound 6006, 2-[4-(6-Bromo-4,5-dimethyl-1H-benzoimidazol-2-ylmethyl)-phenylcarbamoyl]-pyrrolidine-1-carboxylic acid benzyl ester]",70%
4,"O=C(Nc1ccc(-c2nnc(-c3ccco3)o2)cc1)[C@@H]1CCCN1C(=O)OCc1ccccc1 [Compound 6025, 2-[4-(5-Furan-2-yl-[1,3,4]oxadiazol-2-yl)-phenylcarbamoyl]-pyrrolidine-1-carboxylic acid benzyl ester]",5.45%
5,"CC(=O)Nc1ccc(-c2cccc(NC(=O)[C@@H]3CCCN3C(=O)OCc3ccccc3)c2)cc1 [Compound 6056, 2-(4′-Acetylamino-biphenyl-3-ylcarbamoyl)-pyrrolidine-1-carboxylic acid benzyl ester]",80.8%
6,"COc1ccc(OC)c(-c2ccc(NC(=O)[C@@H]3CCCN3C(=O)OCc3ccccc3)cc2)c1 [Compound 6007, 2-(2′,5′-Dimethoxy-biphenyl-4-ylcarbamoyl)-pyrrolidine-1-carboxylic acid benzyl ester]",93.4%
7,"Cc1ccc2cc(-c3cccc(NC(=O)[C@@H]4CCCN4C(=O)OCc4ccccc4)c3)ccc2n1 [Compound 6085, 2-[3-(2-Methyl-quinolin-6-yl)-phenylcarbamoyl]-pyrrolidine-1-carboxylic acid benzyl ester]",39.7%
8,"N#Cc1cccc(-c2cccc(NC(=O)[C@@H]3CCCN3C(=O)OCc3ccccc3)c2)c1 [Compound 6307, 2-(3′-Cyano-biphenyl-3-ylcarbamoyl)-pyrrolidine-1-carboxylic acid benzyl ester]",32.3%
9,"O=C(NC1CC1)c1ccc(-c2cccc(NC(=O)[C@@H]3CCCN3C(=O)OCc3ccccc3)c2)cc1 [Compound 6301, 2-(4′-Cyclopropylcarbamoyl-biphenyl-3-ylcarbamoyl)-pyrrolidine-1-carboxylic acid benzyl ester]",99.1%
10,"CNc1cccc(-c2cccc(NC(=O)[C@@H]3CCCN3C(=O)OCc3ccccc3)c2)c1 [Compound 6089, 2-(3′-Methylamino-biphenyl-3-ylcarbamoyl)-pyrrolidine-1-carboxylic acid benzyl ester]",76.4%
11,"O=C1Cc2cc(-c3cccc(NC(=O)[C@@H]4CCCN4C(=O)OCc4ccccc4)c3)ccc2N1 [Compound 6083, 2-[3-(2-Oxo-2,3-dihydro-1H-indol-5-yl)-phenylcarbamoyl]-pyrrolidine-1-carboxylic acid benzyl ester]",93.8%
12,"O=C(Nc1cccc(-c2ccc3ncsc3c2)c1)[C@@H]1CCCN1C(=O)OCc1ccccc1 [Compound 6304, 2-(3-Benzothiazol-6-yl-phenylcarbamoyl)-pyrrolidine-1-carboxylic acid benzyl ester]",70.4%
13,"CC(=O)c1cccc(-c2cccc(NC(=O)[C@@H]3CCCN3C(=O)OCc3ccccc3)c2)c1 [Compound 6087, 2-(3′-Acetyl-biphenyl-3-ylcarbamoyl)-pyrrolidine-1-carboxylic acid benzyl ester]",78.9%
14,"O=C(Nc1ccc(Cc2nc3cc4ccccc4cc3[nH]2)cc1)[C@@H]1CCCN1C(=O)OCc1ccccc1 [Compound 6020, 2-[4-(1H-Naphtho[2,3-d]imidazol-2-ylmethyl)-phenylcarbamoyl]-pyrrolidine-1-carboxylic acid benzyl ester]",99.9%
15,"O=C(Nc1cccc(Oc2c(F)c(F)c(F)c(F)c2F)c1)[C@@H]1CCCN1C(=O)OCc1ccccc1 [Compound 6012, 2-(3-Pentafluorophenyloxy-phenylcarbamoyl)-pyrrolidine-1-carboxylic acid benzyl ester]",44.5%
16,"O=C(Nc1cc(Oc2ccc3oc4c(c3c2)CCCC4)cc([N+](=O)[O-])c1)[C@@H]1CCCN1C(=O)OCc1ccccc1 [Compound 6032, 2-[3-Nitro-5-(6,7,8,9-tetrahydro-dibenzofuran-2-yloxy)-phenylcarbamoyl]-pyrrolidine-1-carboxylic acid benzyl ester]",44.5%
17,"CC1CCN(S(=O)(=O)c2ccc(NC(=O)[C@@H]3CCCN3C(=O)OCc3ccccc3)cc2)CC1 [Compound 6003, 2-[4-(4-Methyl-piperidine-1-sulfonyl)-phenylcarbamoyl]-pyrrolidine-1-carboxylic acid benzyl ester]",1.21%
18,"O=C(Nc1cccc(Oc2ccccc2)c1)[C@@H]1CCCN1C(=O)OCc1ccccc1 [Compound 6034, 2-(3-Phenoxy-phenylcarbamoyl)-pyrrolidine-1-carboxylic acid benzyl ester]",26.7%
19,"COc1ccc(-c2ccc(NC(=O)[C@@H]3CCCN3C(=O)OCc3ccccc3)cc2)cc1 [Compound 6019, 2-(4′-Methoxy-biphenyl-4-ylcarbamoyl)-pyrrolidine-1-carboxylic acid benzyl ester]",10.5%
20,"COc1cccc(OC)c1-c1ccc(NC(=O)[C@@H]2CCCN2C(=O)OCc2ccccc2)cc1 [Compound 6036, 2-(2′,6′-Dimethoxy-biphenyl-4-ylcarbamoyl)-pyrrolidine-1-carboxylic acid benzyl ester]",22.9%
21,"O=C(Nc1cc(Oc2ccccc2)cc(Oc2cccnc2)c1)[C@@H]1CCCN1C(=O)OCc1ccccc1 [Compound 6024, 2-[3-Phenoxy-5-(pyridin-3-yloxy)-phenylcarbamoyl]-pyrrolidine-1-carboxylic acid benzyl ester]",98.1%
22,"O=C(Nc1cccc(-c2cccc([N+](=O)[O-])c2)c1)[C@@H]1CCCN1C(=O)OCc1ccccc1 [Compound 6309, 2-(3′-Nitro-biphenyl-3-ylcarbamoyl)-pyrrolidine-1-carboxylic acid benzyl ester]",99.8%
23,"O=C(Nc1cccc(-c2ccc3c(c2)OCO3)c1)[C@@H]1CCCN1C(=O)OCc1ccccc1 [Compound 6043, 2-(3-Benzo[1,3]dioxol-5-yl-phenylcarbamoyl)-pyrrolidine-1-carboxylic acid benzyl ester]",93.9%
24,"COc1ccc2nc(NC(=O)c3ccc(NC(=O)[C@@H]4CCCN4C(=O)OCc4ccccc4)cc3)sc2c1 [Compound 6030, 2-[4-(6-Methoxy-benzothiazol-2-ylcarbamoyl)-phenylcarbamoyl]-pyrrolidine-1-carboxylic acid benzyl ester]",42.2%
25,"COc1cccc(-c2cccc(NC(=O)[C@@H]3CCCN3C(=O)OCc3ccccc3)c2)c1OC [Compound 6026, 2-(2′,3′-Dimethoxybiphenyl-3-yl-carbamoyl)-pyrrolidine-1-carboxylic acid benzyl ester]",98.7%
